Experimental data as given in patent US20220098257A1, “Methods of Treating Epilepsy via Phosphodiesterase 4 (PDE4) Inhibition” (Path Therapeutics, Inc., priority 2019, published 2022).
Like-named read-outs stand apart in the source and are kept apart here.

Legend:
Scn1a mutant mice = test: Hyperthermia-induced seizures in Scn1a mutant mice; format: in vivo, mouse; details: for block of seizures (partial = seizure temperature changed; full = no seizure elicited): FIG. 15 comparison, pre-treatment with PDE4 inhibitor
Method: As shown in FIG. 13 (panels A and B), an example PDE4 inhibitor (AN2728) protects against hyperthermia-induced seizures in Scn1a mutant mice. In this model, a Scn1a mutant animal's core temperature is raised using an external heat source and consequently, brain temperature is raised and this leads to hyperthermic seizures. These hyperthermic seizures are thought to represent febrile seizures. In the Scn1a mutants, seizures begin around 41° C., whereas in the WT seizures are rarely detected even at temperatures as high as 43° C. […] FIG. 12B is the same data graphed differently.
A partial block in seizures is noted when the temperature required to induce a seizure is statistically different than wildtype and a full block in seizures occurs when no seizure is elicited following pre-treatment with the PDE4 inhibitor.

scn1lab mutant zebrafish [1] = format: in vivo; details: for OCR response / bioenergetics relative to WT baseline: 40 μM dose of PDE4 inhibitor
Method: The scn1lab mutant zebrafish employed in this Experimental section are homozygous, loss-of-function mutants. To measure bioenergetics in whole, living zebrafish (further details of which may be found in Ibhazehiebo et al. (2018) Brain 141(3):744-761), zebrafish larvae (5 days post-fertilization, dpf) were seeded into 24-well islet capture microplates (Agilent) and pre-exposed to vehicle or drug for 20 minutes prior to the start of the assay. Oxygen consumption rates (OCR) were measured using the Seahorse Bioanalyzer (Agilent).
In a similar assay to that described above, scn1lab mutants are exposed to a 40 μM dose of a range of PDE4 inhibitors. […]

[2] = system: mouse Scn1a mutant brain ex vivo slices; test: Extracellular field recordings in mouse Scn1a mutant brain ex vivo slices; details: AN2728, 40 μM; adult Scn1a heterozygous mutant brain slices; n=3
Method: The mouse Scn1a mutants employed in this Experimental section were heterozygous mutants (Scn1a−/− mice die early postnatally). […] In this assay, adult Scn1a mutant brains were rapidly removed and sectioned for electrophysiological assays. Here, extracellular field recordings were conducted to measure baseline electrophysiological activity, prior to the addition of PDE4 inhibitor (AN2728, 40 μM). A decrease in hyperexcitable amplitude and frequency was measured in the presence of AN2728.

scn1lab mutant zebrafish [3] = test: Electrophysiological recording of seizure-like hyperexcitability in the tectum opticum of scn1lab zebrafish; format: in vivo
Method: Briefly, 6 dpf zebrafish (WT and scn1lab mutants) were paralyzed (α-bungarotoxin, 1 mg/ml, Tocris) and embedded in agarose. The dorsal side of the zebrafish was exposed to the agarose gel surface and a glass microelectrode was placed into the tectum opticum of zebrafish and electrophysiological measurements were recorded. […] Care was taken not to disrupt the pipette or move the fish in any manner. Seizure-like activity was defined by high-frequency, large amplitude spikes, as defined elsewhere (Baraban et al, 2013). Both itcal (>1000 ms in duration) and inter-ictal (<300 ms in duration) activity was observed upon zooming in on a section of the EEG trace (data not shown), consistent with epileptiform events.

[4] = system: 6 Hz-induced psychomotor seizures; test: 6 Hz psychomotor seizure induction mouse model; format: in vivo
Text: To examine the acute effect of PDE4 inhibition on seizures, the 6 Hz psychomotor model that represents therapy-resistant limbic seizures was employed (White et al., 1995; Barton et al., 2001). Briefly, compounds were screened for their ability to block psychomotor seizures induced by a low-frequency (6 Hz), long-duration (3 sec) stimulus delivered through corneal electrodes. These seizures are believed to model partial seizures observed in humans. […]

[5] = system: Dravet syndrome (DS) patients; details: cited from earlier work
kcna1 mutant zebrafish = test: Bioenergetics in kcna1 mutant zebrafish (model of generalizable epilepsy and SUDEP); format: in vivo
[6] = after treatment with AN2728, n=6-10

N#Cc1ccc(Oc2ccc3c(c2)COB3O)cc1 [AN2728, 5-(4-cyanophenoxy)-2,3-dihydro-1-hydroxy-2,1-benzoxaborole]
animals that do not ever experience a seizure (Scn1a mutant mice; AN2728 treatment): 3
protection against hyperthermia-induced seizures (Scn1a mutant mice; AN2728 treatment): protected against hyperthermia-induced seizures
temperature at which the remaining animals experience a seizure (Scn1a mutant mice; AN2728 treatment, untreated mutants seize around 41° C.): ~42 °C
block of seizures (partial = seizure temperature changed; full = no seizure elicited) (Scn1a mutant mice): partially or fully block seizures
OCR response relative to WT (scn1lab mutant zebrafish [1]; AN2728 1 nM-100 nM doses, 5 dpf larvae): ineffective
OCR response relative to WT (scn1lab mutant zebrafish [1]; AN2728 1 μM, 5 dpf larvae): fully restoring OCR response to WT levels
OCR response relative to WT (scn1lab mutant zebrafish [1]; AN2728 10 μM, 5 dpf larvae): fully restoring OCR response to WT levels
toxicity (drop of OCR response below mutant levels) (scn1lab mutant zebrafish [1]; AN2728 100 μM, 5 dpf larvae): toxic
restoration of bioenergetics (OCR) (scn1lab mutant zebrafish [1]; AN2728 dose series 1 nM-100 μM, 5 dpf larvae, 20 min pre-exposure): dose-dependent restoration of bioenergetics
hyperexcitable amplitude [2]: decrease
hyperexcitable frequency [2]: decrease
seizure-like activity (scn1lab mutant zebrafish [3]; AN2728, 40 μM, 6 dpf scn1lab mutants): blocked this seizure-like activity to baseline levels
peak amplitude (scn1lab mutant zebrafish [3]; [6]): decrease
seizure frequency (scn1lab mutant zebrafish [3]; [6]): decrease
animals that responded (protected) in 6 Hz test ([4]; dosed 30 min prior to the 6 Hz test, highest dose 300 mg/kg): 1
animals that responded (protected) in 6 Hz test ([4]; treated two hours prior to the 6 Hz test): three out of four

C=C(C)[C@@H]1CCC(C)=C[C@H]1c1c(O)cc(CCCCC)cc1O [CBD, cannabidiol]
patients achieving full seizure freedom [5]: < 5%
patients with reduced seizure frequency [5]: 43%

COc1ccc([C@]2(C#N)CC[C@@H](C(=O)O)CC2)cc1OC1CCCC1 [Cilomilast, cilomilast]
OCR response / bioenergetics relative to WT baseline (scn1lab mutant zebrafish [1]): restored OCR response to baseline levels

CCOc1ccc(/C=C2\NCCc3cc(OCC)c(OCC)cc32)cc1OCC [Drotaverine, drotaverine]
OCR response / bioenergetics relative to WT baseline (scn1lab mutant zebrafish [1]): effective in restoring bioenergetics to baseline levels

Nc1nc(N)nc(-c2cc(Cl)ccc2Cl)n1 [Irsogladine, irsogladine]
OCR response / bioenergetics relative to WT baseline (scn1lab mutant zebrafish [1]): effective in restoring bioenergetics to baseline levels

O=C(Nc1c(Cl)cncc1Cl)c1ccc(OC(F)F)c(OCC2CC2)c1 [Roflumilast, roflumilast]
block of seizures (partial = seizure temperature changed; full = no seizure elicited) (Scn1a mutant mice): partially or fully block seizures
bioenergetics relative to wild-type baseline (kcna1 mutant zebrafish): restore bioenergetics in a kcna1 mutant zebrafish back to baseline levels
OCR response / bioenergetics relative to WT baseline (scn1lab mutant zebrafish [1]): restored OCR response to baseline levels

COc1ccc(C2CNC(=O)C2)cc1OC1CCCC1 (stereo not drawn) [Rolipram, rolipram]
block of seizures (partial = seizure temperature changed; full = no seizure elicited) (Scn1a mutant mice): partially or fully block seizures
protection against hyperthermia-induced seizures (Scn1a mutant mice; rolipram, 3 mg/kg): neuroprotective against hyperthermia-induced seizures
temperature required to induce a seizure (Scn1a mutant mice; rolipram, 3 mg/kg): raising
severity of the seizure, Racine scale level (Scn1a mutant mice; rolipram, 3 mg/kg, from mostly 4-5 level without treatment): 3

Cn1c(=O)c2[nH]cnc2n(C)c1=O [Theophylline, theophylline]
bioenergetics relative to wild-type baseline (kcna1 mutant zebrafish): restore bioenergetics in a kcna1 mutant zebrafish back to baseline levels
OCR response / bioenergetics relative to WT baseline (scn1lab mutant zebrafish [1]): effective in restoring bioenergetics to baseline levels
